Results published in patent publication US8986994B2, “Substituted pyridines and pyrimidines” (Technische Universitaet Wien, priority 2009, dated 2015).
Like-named read-outs stand apart in the source and are kept apart here.

Tests used:
[1] = test system: ANF (P19 cells); assay: ANF promoter luciferase reporter assay in P19 cells; assay type: cell-based, mouse; details: for fold induction at 1 µM: Mus musculus, read-out: ANF activity
[2] = test system: TOPflash (P19 cells); assay: TOPflash luciferase reporter assay in P19 cells; assay type: cell-based; details: Mus musculus, read-out: TOPflash activity
[3] = test system: Nkx2.5 (C2C12 cells); assay: Nkx2.5 luciferase reporter assay in C2C12 cells; assay type: cell-based; details: Mus musculus, read-out: Nkx2.5 activity
[4] = test system: Nkx2.5 (P19 cells); assay: Nkx2.5 luciferase reporter assay in P19 cells; assay type: cell-based; details: Mus musculus, read-out: Nkx2.5 activity
[5] = test system: ANF (C2C12 cells); assay: ANF promoter luciferase reporter assay in C2C12 cells; assay type: cell-based, mouse; details: for luciferase signal in all three reporter assays: ANF, TOPflash and Nkx2.5 reporter assays together; for fold induction at 1 µM: Mus musculus, read-out: ANF activity
[6] = test system: TOPflash (C2C12 cells); assay: TOPflash luciferase reporter assay in C2C12 cells; assay type: cell-based; details: Mus musculus, read-out: TOPflash activity
[7] = 192 h, P19 cells, 1 μM for 8 days, luciferase signal vs control (untreated cells)
[8] = 192 h, C2C12 cells, 1 μM for 8 days, luciferase signal vs control (untreated cells)

## COc1ccc(Nc2cc(NC(C)C)ncn2)cc1 [example 12, N^4-(2-Propyl)-N^6-(4-methoxyphenyl)pyrimidine-4,6-diamine]
[1]; P19, 192 h
  fold induction at 1 µM: < 1.3
[2]; P19, 192 h
  fold induction at 1 µM: < 1.3
[3]; C2C12, 192 h
  fold induction at 1 µM: 1.3 to 2
[4]; P19, 192 h
  fold induction at 1 µM: 1.3 to 2
[5]; C2C12 cells, 1 μM for 8 days
  luciferase signal in all three reporter assays: increase in the luciferase signal in all three reporter assays
[5]; C2C12, 192 h
  fold induction at 1 µM: 1.3 to 2
[6]; C2C12, 192 h
  fold induction at 1 µM: 1.3 to 2

## OCCNc1cc(NC2CCCCC2)ncn1 [example 39, 2-(6-(Cyclohexylamino)pyrimidin-4-ylamino)ethan-1-ol]
[1]; P19, 192 h
  fold induction at 1 µM: < 1.3

## CCNc1cc(Nc2ccc(OC)cc2)ncn1 [example 10, N^4-Ethyl-N^6-(4-methoxyphenyl)pyrimidine-4,6-diamine]
[1]; P19, 192 h
  fold induction at 1 µM: 1.3 to 2
[2]; P19, 192 h
  fold induction at 1 µM: < 1.3
other
  melting point: 190 to 193 °C
[3]; C2C12, 192 h
  fold induction at 1 µM: 1.3 to 2
[4]; P19, 192 h
  fold induction at 1 µM: < 1.3
[5]; C2C12 cells, 1 μM for 8 days
  luciferase signal in all three reporter assays: increase in the luciferase signal in all three reporter assays
[5]; C2C12, 192 h
  fold induction at 1 µM: 1.3 to 2
[6]; C2C12, 192 h
  fold induction at 1 µM: 1.3 to 2

## COc1cccc(Nc2cc(NC3CCCCC3)ncn2)c1 [example 37, N^4-Cyclohexyl-N^6-(3-methoxyphenyl)pyrimidine-4,6-diamine]
[1]; P19, 192 h
  fold induction at 1 µM: 1.3 to 2
[4]; P19, 192 h
  fold induction at 1 µM: > 2

## COc1ccc(Nc2cccc(NCCCO)n2)cc1 [example 43, 3-(6-(4-Methoxyphenylamino)pyridin-2-ylamino)propan-1-ol]
[1]; [7]
  fold induction at 1 µM: 1.3 to 2
[2]; [7]
  fold induction at 1 µM: 1.3 to 2
[3]; [8]
  fold induction at 1 µM: 1.3 to 2
[4]; [7]
  fold induction at 1 µM: < 1.3
[5]; C2C12 cells, 1 μM for 8 days
  luciferase signal in all three reporter assays: increase in the luciferase signal in all three reporter assays
[5]; [8]
  fold induction at 1 µM: 1.3 to 2
[6]; [8]
  fold induction at 1 µM: 1.3 to 2

## COc1ccc(Nc2cc(NCC(=O)O)ncn2)cc1 [example 14, 2-(6-(4-Methoxyphenylamino)pyrimidin-4-ylamino)acetic acid]
[1]; P19, 192 h
  fold induction at 1 µM: > 2

## OCCNc1cccc(Nc2ccc(Oc3ccccc3)cc2)n1 [example 44, 2-(6-(4-Phenoxyphenylamino)pyridin-2-ylamino)ethan-1-ol]
[1]; [7]
  fold induction at 1 µM: 1.3 to 2
[2]; [7]
  fold induction at 1 µM: < 1.3
[3]; [8]
  fold induction at 1 µM: 1.3 to 2
[4]; [7]
  fold induction at 1 µM: < 1.3
[5]; [8]
  fold induction at 1 µM: < 1.3
[6]; [8]
  fold induction at 1 µM: < 1.3

## OCCNc1cc(Nc2cccc(Br)c2)ncn1 [example 33, 2-(6-(3-Bromophenylamino)pyrimidin-4-ylamino)ethan-1-ol]
[1]; [7]
  fold induction at 1 µM: < 1.3
[4]; [7]
  fold induction at 1 µM: 1.3 to 2

## OCCNc1cc(Nc2ccc(Nc3ccccc3)cc2)ncn1 [example 7, 2-(6-(4-(Phenylamino)phenylamino)pyrimidin-4-ylamino)ethan-1-ol]
[1]; [7]
  fold induction at 1 µM: < 1.3
[2]; [7]
  fold induction at 1 µM: < 1.3
other
  melting point: 154 to 155 °C
[3]; [8]
  fold induction at 1 µM: < 1.3
[4]; [7]
  fold induction at 1 µM: < 1.3
[5]; [8]
  fold induction at 1 µM: < 1.3
[6]; [8]
  fold induction at 1 µM: < 1.3

## COCCNc1cc(Nc2cccc(Cl)c2)ncn1 [example 27, N^4-(3-Chlorophenyl)-N^6-(2-methoxyethyl)pyrimidine-4,6-diamine]
[1]; P19, 192 h
  fold induction at 1 µM: < 1.3
[4]; P19, 192 h
  fold induction at 1 µM: < 1.3

## CCCNc1cc(Nc2ccc(OC)cc2)ncn1 [example 9, N^4-(4-Methoxyphenyl)-N^6-propylpyrimidine-4,6-diamine]
[1]; [7]
  fold induction at 1 µM: < 1.3
[2]; [7]
  fold induction at 1 µM: < 1.3
other
  melting point: 194 to 196 °C
[3]; [8]
  fold induction at 1 µM: 1.3 to 2
[4]; [7]
  fold induction at 1 µM: > 2
[5]; [8]
  fold induction at 1 µM: < 1.3
[6]; [8]
  fold induction at 1 µM: 1.3 to 2

## CCOC(=O)c1ccc(Nc2cc(NCCO)ncn2)cc1 [example 34, Ethyl 4-(6-(2-hydroxyethylamino)pyrimidin-4-ylamino)benzoate]
[1]; [7]
  fold induction at 1 µM: < 1.3
[4]; [7]
  fold induction at 1 µM: < 1.3

## COc1ccc(Nc2cc(N(C)CCO)ncn2)cc1 [example 16, 2-((6-(4-Methoxyphenylamino)pyrimidin-4-yl)(methyl)amino)ethan-1-ol]
[1]; P19, 192 h
  fold induction at 1 µM: > 2

## CCC(C)Nc1cc(Nc2ccc(OC)cc2)ncn1 (stereo not drawn) [example 19, N^4-sec-Butyl-N^6-(4-methoxyphenyl)pyrimidine-4,6-diamine]
[1]; [7]
  fold induction at 1 µM: < 1.3
[4]; [7]
  fold induction at 1 µM: < 1.3

## CCCCNc1cc(Nc2ccc(OC)cc2)ncn1 [example 17, N^4-Butyl-N^6-(4-methoxyphenyl)pyrimidine-4,6-diamine]
[1]; [7]
  fold induction at 1 µM: > 2

## COc1ccc(Nc2cc(NC3CCCCC3)ncn2)cc1 [example 3, N^4-Cyclohexyl-N^6-(4-methoxyphenyl)pyrimidine-4,6-diamine]
[1]; P19, 192 h
  fold induction at 1 µM: > 2
[1]; P19 cells, 1 μM for 8 days, ANF, TOPflash and Nkx2.5 reporter assays together
  luciferase signal in all three reporter assays: increase in the luciferase signal in all three reporter assays
[2]; P19, 192 h
  fold induction at 1 µM: > 2
other
  melting point: 218 to 219 °C
[3]; C2C12, 192 h
  fold induction at 1 µM: > 2
[4]; P19, 192 h
  fold induction at 1 µM: > 2
[5]; C2C12 cells, 1 μM for 8 days
  luciferase signal in all three reporter assays: increase in the luciferase signal in all three reporter assays
[5]; C2C12, 192 h
  fold induction at 1 µM: > 2
[6]; C2C12, 192 h
  fold induction at 1 µM: 1.3 to 2

## COc1ccc(N(C)c2cc(NCCO)ncn2)cc1 [example 38, 2-(6-((4-Methoxyphenyl)(methyl)amino)pyrimidin-4-ylamino)ethan-1-ol]
[1]; [7]
  fold induction at 1 µM: > 2

## OCCNc1cc(Nc2cccc(F)c2)ncn1 [example 32, 2-(6-(3-Fluorophenylamino)pyrimidin-4-ylamino)ethan-1-ol]
[1]; [7]
  fold induction at 1 µM: < 1.3
[4]; [7]
  fold induction at 1 µM: < 1.3

## c1nc(Nc2ccc(N3CCOCC3)cc2)cc(NC2CCCCC2)n1 [example 5, N^4-Cyclohexyl-N^6-(4-morpholinophenyl)pyrimidine-4,6-diamine]
[1]; P19, 192 h
  fold induction at 1 µM: 1.3 to 2
[2]; P19, 192 h
  fold induction at 1 µM: < 1.3
other
  melting point: 239 to 240 °C
[3]; C2C12, 192 h
  fold induction at 1 µM: < 1.3
[4]; P19, 192 h
  fold induction at 1 µM: < 1.3
[5]; C2C12, 192 h
  fold induction at 1 µM: < 1.3
[6]; C2C12, 192 h
  fold induction at 1 µM: < 1.3

## COc1ccc(Nc2cc(N3CCOCC3)ncn2)cc1 [example 15, N-(4-Methoxyphenyl)-6-morpholinopyrimidin-4-amine]
[1]; [7]
  fold induction at 1 µM: > 2

## COc1ccc(Nc2cc(NC34CC5CC(CC(C5)C3)C4)ncn2)cc1 [example 21, N^4-Adamant-1-yl-N^6-(4-methoxyphenyl)pyrimidine-4,6-diamine]
[1]; P19, 192 h
  fold induction at 1 µM: > 2

## COc1ccc(Nc2cc(NC(C)(C)C)ncn2)cc1 [example 20, N^4-tert-Butyl-N^6-(4-methoxyphenyl)pyrimidine-4,6-diamine]
[1]; P19, 192 h
  fold induction at 1 µM: > 2

## OCCNc1cc(Nc2ccccc2)ncn1 [example 23, 2-(6-(Phenylamino)pyrimidin-4-ylamino)ethan-1-ol]
[1]; [7]
  fold induction at 1 µM: < 1.3
[4]; [7]
  fold induction at 1 µM: < 1.3

## COCCNc1cc(Nc2ccc(OC)cc2)ncn1 [example 13, N^4-(2-Methoxyethyl)-N^6-(4-methoxyphenyl)pyrimidine-4,6-diamine]
[1]; P19, 192 h
  fold induction at 1 µM: 1.3 to 2

## OCCNc1cc(Nc2ccc(Cl)cc2)ncn1 [example 24, 2-(6-(4-Chlorophenylamino)pyrimidin-4-ylamino)ethan-1-ol]
[1]; [7]
  fold induction at 1 µM: 1.3 to 2
other
  melting point: 183 °C
[4]; [7]
  fold induction at 1 µM: 1.3 to 2

## OCCNc1cc(Nc2cccc(Cl)c2)ncn1 [example 25, 2-(6-(3-Chlorophenylamino)pyrimidin-4-ylamino)ethan-1-ol]
[1]; [7]
  fold induction at 1 µM: > 2
[4]; [7]
  fold induction at 1 µM: 1.3 to 2

## OCCCNc1cccc(Nc2ccc(Oc3ccccc3)cc2)n1 [example 45, 3-(6-(4-Phenoxyphenylamino)pyridin-2-ylamino)propan-1-ol]
[1]; [7]
  fold induction at 1 µM: < 1.3
[2]; [7]
  fold induction at 1 µM: < 1.3
[3]; [8]
  fold induction at 1 µM: < 1.3
[4]; [7]
  fold induction at 1 µM: < 1.3
[5]; [8]
  fold induction at 1 µM: < 1.3
[6]; [8]
  fold induction at 1 µM: 1.3 to 2

## COc1cccc(Nc2cc(NCCO)ncn2)c1 [example 22, 2-(6-(3-Methoxyphenylamino)pyrimidin-4-ylamino)ethan-1-ol]
[1]; [7]
  fold induction at 1 µM: < 1.3
[2]; [7]
  fold induction at 1 µM: < 1.3
[3]; [8]
  fold induction at 1 µM: < 1.3
[4]; [7]
  fold induction at 1 µM: < 1.3
[5]; [8]
  fold induction at 1 µM: 1.3 to 2
[6]; [8]
  fold induction at 1 µM: 1.3 to 2

## OCCCNc1cc(Nc2cccc(Cl)c2)ncn1 [example 31, 3-(6-(3-Chlorophenylamino)pyrimidin-4-ylamino)propan-1-ol]
[1]; P19, 192 h
  fold induction at 1 µM: 1.3 to 2
[4]; P19, 192 h
  fold induction at 1 µM: 1.3 to 2

## O=[N+]([O-])c1ccc(Nc2cc(NCCO)ncn2)cc1 [example 30, 2-(6-(4-Nitrophenylamino)pyrimidin-4-ylamino)ethan-1-ol]
[1]; [7]
  fold induction at 1 µM: < 1.3
[4]; [7]
  fold induction at 1 µM: < 1.3

## COc1ccc(Nc2cc(NC3CCCC3)ncn2)cc1 [example 18, N^4-Cyclopentyl-N^6-(4-methoxyphenyl)pyrimidine-4,6-diamine]
[1]; P19, 192 h
  fold induction at 1 µM: > 2

## Clc1cccc(Nc2cc(NC3CCCCC3)ncn2)c1 [example 26, N^4-(3-Chlorophenyl)-N^6-cyclohexylpyrimidine-4,6-diamine]
[1]; P19, 192 h
  fold induction at 1 µM: > 2
[4]; P19, 192 h
  fold induction at 1 µM: > 2
